These results are taken from ChEMBL document CHEMBL1255390, “Clinical pharmacodynamics of cefepime in patients infected with Pseudomonas aeruginosa” (2010).

≈ marks a conversion by molar mass, not a printed value.

Holding throughout (type): functional
Test [1] is described as follows: fT>MIC in Pseudomonas aeruginosa infected patient.
For the next test, the system named is Pseudomonas aeruginosa. In words: Antimicrobial activity against Pseudomonas aeruginosa isolated from infected patient by Etest method.
A short description of test [2]: fT>MIC in Pseudomonas aeruginosa infected patient at 2 g,iv administered as 3 hrs infusion every 8 hrs.

Consider `CO/N=C(\C(=O)N[C@@H]1C(=O)N2C(C(=O)[O-])=C(C[N+]3(C)CCCC3)CS[C@H]12)c1csc(N)n1` [CEFEPIME], for which the “fT>MIC” value in test [1] is recorded as 85.2%. Moreover, in the test on Pseudomonas aeruginosa, the MIC50 amounted to 3 µg/mL (≈ 6.24 µM) and the MIC90 was 16 µg/mL (≈ 33.3 µM). Further, in test [2], the “fT>MIC” value is recorded as over 60%.
